Test results: PubChem BioAssay (NCI)
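All cell lines were grown in 96-well plates and treated with compound for 48 hours. The concentration for 50% growth inhibition is given as GI50. TGI denotes the concentration required for complete inhibition of growth.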

Experiments:
Assay in all cases: NCI anticancer screen, dose series, 48 h
OVCAR-8 ovarian = test system: OVCAR-8 ovarian
KM12 colon = test system: KM12 colon
HOP-92 NSCLC = test system: HOP-92 NSCLC
SNB-75 CNS = test system: SNB-75 CNS
LOX IMVI melanoma = test system: LOX IMVI melanoma
IGROV1 ovarian = test system: IGROV1 ovarian
A498 renal = test system: A498 renal
RPMI-8226 leukemia = test system: RPMI-8226 leukemia
COLO 205 colon = test system: COLO 205 colon
TK-10 renal = test system: TK-10 renal

Row | Structure (SMILES) | GI50 (OVCAR-8 ovarian) [µM] | TGI (OVCAR-8 ovarian) [µM] | GI50 (KM12 colon) [µM] | TGI (KM12 colon) [µM] | GI50 (HOP-92 NSCLC) [µM] | TGI (HOP-92 NSCLC) [µM] | GI50 (SNB-75 CNS) [µM] | TGI (SNB-75 CNS) [µM] | GI50 (LOX IMVI melanoma) [µM] | TGI (LOX IMVI melanoma) [µM] | GI50 (IGROV1 ovarian) [µM] | TGI (IGROV1 ovarian) [µM] | GI50 (A498 renal) [µM] | TGI (A498 renal) [µM] | GI50 (RPMI-8226 leukemia) [µM] | TGI (RPMI-8226 leukemia) [µM] | GI50 (COLO 205 colon) [µM] | TGI (COLO 205 colon) [µM] | GI50 (TK-10 renal) [µM] | TGI (TK-10 renal) [µM]
1 | COC1=CC(c2ccc[nH]2)=N/C1=C\c1[nH]c(C)c(C(=O)CCCCC(=O)Nc2ccccc2)c1C | 2.02 | 4.82 | 1.03 | 2.3 | 1.4 | 3.37 | 2.8 | 11.4 | 1.13 | 2.34 | 0.811 | 2.07 | 5.92 | 20.6 | 0.142 | 1.82 | 1.75 | 3.8 | 1.66 | 3.38
2 | Nc1nc2nc[nH]c2c(=O)[nH]1 | – | > 100 | – | > 100 | – | > 100 | – | > 100 | – | > 100 | – | > 100 | – | > 100 | – | > 100 | – | > 100 | – | > 100
3 | CCCN(CCC)c1ccc(/C=N/NC(=O)c2cccnc2)c(Cl)c1 | 18.1 | 53.7 | 7.19 | 25.7 | 8.95 | 25.2 | 11.4 | 39.9 | 11.2 | 24.9 | 1.21 | 15.6 | 0.161 | 0.318 | 15.7 | 69.9 | 6.29 | 22.3 | 0.5 | 3.15
4 | O=C1CCC2(CC1)SCCCS2 | – | > 100 | – | > 100 | – | > 100 | – | > 100 | – | > 100 | – | > 100 | – | > 100 | – | > 100 | – | > 100 | – | > 100
5 | Cc1cc(Cl)cc2c1NC(=O)C2(O)C(C)C(=O)c1ccc(Cl)cc1 (configuration not stated) | – | > 100 | – | > 100 | – | > 100 | – | > 100 | – | > 100 | – | > 100 | – | > 91.6 | – | 98.2 | – | > 100 | – | > 100
6 | COc1ccc(/C=C2\CCC(C)(CN(C)C)C2=O)cc1 (configuration not stated) | – | > 100 | – | > 100 | – | > 100 | – | > 100 | – | > 100 | – | > 100 | – | > 100 | – | > 100 | – | > 100 | – | > 100
7 | COC(=O)C1=C(C(=O)OC)C23C=C(C)C1C2=C(C)C1(CC1)[C@@](C)(O)C3=O (some centres not stated) | 0.359 | > 24.6 | 0.868 | 11 | 0.31 | 1.53 | 0.198 | 0.547 | 0.358 | 2.89 | 0.275 | – | 0.188 | 0.49 | 7.36 | 52.6 | 0.35 | 1.62 | 1.35 | 11.3
8 | CCOC(=O)c1sc(=S)c2c(C(=O)OCC)c(C(=O)OCC)sc2c1C(=O)OCC | 17.8 | 40 | 18.4 | 44.5 | 10.3 | 23 | 40.3 | > 100 | 14.1 | 27.9 | 13.4 | 29.8 | 18.2 | 33.9 | 7.88 | 28 | 27.6 | > 100 | 5.85 | 39.4
9 | C[C@@]12CCC(=O)C=C1CC[C@H]1C2=CC[C@]2(C)C1CC[C@@]2(C)O (some centres not stated) | – | > 100 | – | > 100 | – | > 100 | – | > 100 | – | > 100 | – | > 100 | – | > 100 | – | > 100 | – | > 100 | – | > 100
10 | N#Cc1ccnc(N2C(=O)CC[C@H]2C(=O)N(c2cncc(F)c2)[C@H](C(=O)NC2CC(F)(F)C2)c2ccccc2Cl)c1 | > 100 | > 100 | 67 | > 100 | 73 | > 100 | 16.7 | > 100 | 52.6 | > 100 | 44.5 | > 100 | 81.7 | > 100 | 97.3 | > 100 | > 100 | > 100 | – | –
11 | CS(=O)(=O)Nc1ccc(Nc2c3ccccc3nc3ccccc23)cc1 | – | 32.6 | – | 24.7 | – | 24.2 | – | 19.1 | – | 13.9 | – | 18.9 | – | 16.3 | – | 31 | – | 21 | – | 9.52
12 | CC(C)(C)C(=O)C1CC(=O)c2ccccc2C1=O (configuration not stated) | – | > 100 | – | > 100 | – | 66.5 | – | 31.3 | – | > 100 | – | > 100 | – | 91.3 | – | 64.8 | – | > 100 | – | > 100
13 | CSc1nc2sc3cc(Cl)ccc3n2c(=N)c1C#N | 17.4 | > 100 | 3.78 | > 72 | < 0.0468 | 4.77 | 2.27 | > 69.6 | > 74.4 | > 100 | > 49.2 | > 88.4 | 29.6 | > 100 | > 80.6 | > 100 | 3.33 | > 100 | 14.1 | > 73.3
